According to US20130165641A1, “6,11-BRIDGED BIARYL MACROLIDES” (Enanta Pharmaceuticals, Inc., priority 2007, published 2013):
Converted amounts (≈) assume the structure as drawn.

How the values were obtained:
H. influenzae = assay: MIC by micro-dilution method, H. influenzae isolates; assay type: cell-based, Haemophilus influenzae
Experimental: (§1) Susceptibility tests can be used to quantitatively measure the in vitro activity of an antimicrobial agent against a given bacterial isolate. Compounds are tested for in vitro antibacterial activity by a micro-dilution method. Minimal Inhibitory Concentration (MIC) is determined in 96 well microtiter plates utilizing the appropriate broth medium for the observed bacterial isolates. […] The diluted compounds (2 μl/well) are then transferred into sterile, uninoculated medium (0.2 mL) by use of a 96 fixed tip-pipetting station. The inoculum for each bacterial strain is standardized to approximately 5×10^5 CFU/mL by optical comparison to a 0.5 McFarland turbidity standard. The plates are inoculated with 10 μl/well of adjusted bacterial inoculum. The 96 well plates are covered and incubated at 35+/−2° C. for 24 hours in ambient air environment. Following incubation, plate wells are visually examined by Optical Density measurement for the presence of growth (turbidity). The lowest concentration of an antimicrobial agent at which no visible growth occurs is defined as the MIC.
(§2) All in vitro testing follows the guidelines described in the Approved Standards M7-A7 protocol, published by the Clinical Laboratory Standards Institute (CLSI).

MRSA = assay: MIC by micro-dilution method, MRSA isolates; assay type: cell-based, Staphylococcus aureus; details: compounds of Formula XVI; for MIC MRSA 7662: MRSA isolate 7662; for MIC MRSA 33591: MRSA isolate 33591
Experimental: as §1, §2

Compound	MIC (H. influenzae; H. influenzae 33929) [µg/mL]	MIC (H. influenzae; H. influenzae 49247) [µg/mL]	MIC MRSA 7662 (MRSA) [µg/mL]	MIC MRSA 33591 (MRSA) [µg/mL]
CCC1OC(=O)C(C)C(=O)C(C)C(OC2OC(C)CC(N(C)C)C2O)C2(C)CC(C)C(=O)C(C)C(OCC(=NOCc3ccc(-c4nc(N)cs4)cn3)CO2)C1(C)O (centres unmarked) [Example 32]	2 (≈ 2.4 µM)	2 (≈ 2.4 µM)	–	–
CCC1OC(=O)C(C)(F)C(=O)C(C)C(OC2OC(C)CC(N(C)C)C2O)C2(C)CC(C)C(=O)C(C)C(OCC(=NOCc3ccc(-c4nc(N)cs4)cn3)CO2)C1(C)O (centres unmarked) [Example 33]	4 (≈ 4.71 µM)	2 (≈ 2.35 µM)	–	–
CCC1OC(=O)C(C)C(=O)C(C)C(OC2OC(C)CC(N(C)C)C2O)C2(C)CC(C)C(=O)C(C)C(OCC(=NOCc3cnc(-c4cccc(N)n4)s3)CO2)C1(C)O (centres unmarked) [Example 34]	2 (≈ 2.4 µM)	2 (≈ 2.4 µM)	–	–
CCC1OC(=O)C(C)C(=O)C(C)C(OC2OC(C)CC(N(C)C)C2O)C2(C)CC(C)C(=O)C(C)C(OCC(=NOCc3ccc(-c4nsc(N)n4)cn3)CO2)C1(C)O (centres unmarked) [Example 35]	2 (≈ 2.4 µM)	2 (≈ 2.4 µM)	–	–
CCC1OC(=O)C(C)C(=O)C(C)C(OC2OC(C)CC(N(C)C)C2O)C2(C)CC(C)C(=O)C(C)C(OCC(=NOCc3ncc(-c4cccc(N)n4)s3)CO2)C1(C)O (centres unmarked) [Example 36]	2 (≈ 2.4 µM)	2 (≈ 2.4 µM)	–	–
CCC1OC(=O)C(C)C(=O)C(C)C(OC2OC(C)CC(N(C)C)C2O)C2(C)CC(C)C(=NC(C)=O)C(C)C(OCC(=NOCc3cnc(-c4cccc(N)n4)s3)CO2)C1(C)O (centres unmarked) [Example 37]	4 (≈ 4.58 µM)	2 (≈ 2.29 µM)	–	–
CCC1OC(=O)C(C)(F)C(=O)C(C)C(OC2OC(C)CC(N(C)C)C2O)C2(C)CC(C)C(=O)C(C)C(OCC(=NOCc3ccc(-c4nc(N)no4)cc3)CO2)C1(C)O (centres unmarked) [Example 38]	2 (≈ 2.4 µM)	4 (≈ 4.8 µM)	–	–
CCC1OC(=O)C(C)C(=O)C(C)C(OC2OC(C)CC(N(C)C)C2O)C2(C)CC(C)C(=O)C(C)C(OCC(=NOCc3coc(-c4cccc(N)n4)n3)CO2)C1(C)O (centres unmarked) [Example 39]	1 (≈ 1.23 µM)	1 (≈ 1.23 µM)	–	–
CCC1OC(=O)C(C)C(=O)C(C)C(OC2OC(C)CC(N(C)C)C2O)C2(C)CC(C)C(=NC(C)=O)C(C)C(OCC(=NOCc3coc(-c4cccc(N)n4)n3)CO2)C1(C)O (centres unmarked) [Example 40]	2 (≈ 2.33 µM)	2 (≈ 2.33 µM)	–	–
CCC1OC(=O)C(C)C(=O)C(C)C(OC2OC(C)CC(N(C)C)C2O)C2(C)CC(C)C(=O)C(C)C(OCC(=NOCc3ccc(-c4csc(N)n4)cn3)CO2)C1(C)O (centres unmarked) [Example 41]	2 (≈ 2.4 µM)	1 (≈ 1.2 µM)	–	–
CCC1OC(=O)C(C)C(=O)C(C)C(OC2OC(C)CC(N(C)C)C2O)C2(C)CC(C)C(=O)C(C)C(OCC(=NOCc3ccc(-c4nc(N)no4)cc3)CO2)C1(C)O (centres unmarked) [Example 42]	2 (≈ 2.45 µM)	1 (≈ 1.23 µM)	–	–
CCC1OC(=O)C(C)(F)C(=O)C(C)C(OC2OC(C)CC(N(C)C)C2O)C2(C)CC(C)C(=O)C(C)C(OCC(=NOCc3ccc(-c4nc(N)no4)cn3)CO2)C1(C)O (centres unmarked) [Example 43]	2 (≈ 2.4 µM)	2 (≈ 2.4 µM)	–	–
CCC1OC(=O)C(C)C(=O)C(C)C(OC2OC(C)CC(N(C)C)C2O)C2(C)CC(C)C(=O)C(C)C(OCC(=NOCc3ccc(-c4nc(N)ns4)cc3)CO2)C1(C)O (centres unmarked) [Example 44]	2 (≈ 2.4 µM)	1 (≈ 1.2 µM)	–	–
CCC1OC(=O)C(C)C(=O)C(C)C(OC2OC(C)CC(N(C)C)C2O)C2(C)CC(C)C(=O)C(C)C(OCC(=NOCc3ccc(-c4nc(N)no4)cn3)CO2)C1(C)O (centres unmarked) [Example 45]	2 (≈ 2.45 µM)	1 (≈ 1.22 µM)	–	–
CCC1OC(=O)C(C)C(=O)C(C)C(OC2OC(C)CC(N(C)C)C2O)C2(C)CC(C)C(=O)C(C)C(OCC(=NOCc3ccc(-n4nnnc4N)cc3)CO2)C1(C)O (centres unmarked) [Example 46]	2 (≈ 2.45 µM)	2 (≈ 2.45 µM)	–	–
CCC1OC(=O)C(C)C(=O)C(C)C(OC2OC(C)CC(N(C)C)C2O)C2(C)CC(C)C(=NC(C)=O)C(C)C(OCC(=NOCc3ccc(-n4nnnc4N)cc3)CO2)C1(C)O (centres unmarked) [Example 47]	2 (≈ 2.33 µM)	–	–	–

Compound	MIC (H. influenzae; H. influenzae 33929) [µg/mL]	MIC (H. influenzae; H. influenzae 49247) [µg/mL]	MIC MRSA 7662 (MRSA) [µg/mL]	MIC MRSA 33591 (MRSA) [µg/mL]
CCC1OC(=O)C(C)C(=O)C(C)C(OC2OC(C)CC(N(C)C)C2O)C2(C)CC(C)C(=NC(C)=O)C(C)C(OCC(=NOCc3ccc(-c4nsc(N)n4)cc3)CO2)C1(C)O (centres unmarked) [Example 48]	2 (≈ 2.29 µM)	–	–	–
CCC1OC(=O)C(C)(F)C(=O)C(C)C(OC2OC(C)CC(N(C)C)C2O)C2(C)CC(C)C(=O)C(C)C(OCC(=NOCc3ccc(-n4ccc(N)n4)nc3)CO2)C1(C)O (centres unmarked) [Example 49]	2 (≈ 2.4 µM)	2 (≈ 2.4 µM)	–	–
CCC1OC(=O)C(C)C(=O)C(C)C(OC2OC(C)CC(N(C)C)C2O)C2(C)CC(C)C(=O)C(C)C(OCC(=NOCc3ncc(-c4cccc(N)n4)cn3)CO2)C1(C)O (centres unmarked) [Example 50]	2 (≈ 2.42 µM)	2 (≈ 2.42 µM)	–	–
CCC1OC(=O)C(C)C(=O)C(C)C(OC2OC(C)CC(N(C)C)C2O)C2(C)CC(C)C(=O)C(C)C(OCC(=NOCc3ccc(-c4nc(N)no4)nc3)CO2)C1(C)O (centres unmarked) [Example 51]	2 (≈ 2.45 µM)	2 (≈ 2.45 µM)	–	–
CCC1OC(=O)C(C)(F)C(=O)C(C)C(OC2OC(C)CC(N(C)C)C2O)C2(C)CC(C)C(=O)C(C)C(OCC(=NOCc3nc(-c4cccc(N)n4)no3)CO2)C1(C)O (centres unmarked) [Example 52]	1 (≈ 1.2 µM)	2 (≈ 2.4 µM)	–	–
CCC1OC(=O)C(C)C(=O)C(C)C(OC2OC(C)CC(N(C)C)C2O)C2(C)CC(C)C(=O)C(C)C(OCC(=NOCc3nc(-c4cccc(N)n4)no3)CO2)C1(C)O (centres unmarked) [Example 53]	1 (≈ 1.22 µM)	1 (≈ 1.22 µM)	–	–
CCC1OC(=O)C(C)C(=O)C(C)C(OC2OC(C)CC(N(C)C)C2O)C2(C)CC(C)C(=O)C(C)C(OCC(=NOCc3noc(-c4cccc(N)n4)n3)CO2)C1(C)O (centres unmarked) [Example 54]	1 (≈ 1.22 µM)	1 (≈ 1.22 µM)	–	–
CCC1OC(=O)C(C)C(=O)C(C)C(OC2OC(C)CC(N(C)C)C2O)C2(C)CC(C)C(=O)C(C)C(OCC(=NOCc3ccc(-c4coc(N)n4)cn3)CO2)C1(C)O (centres unmarked) [Example 55]	2 (≈ 2.45 µM)	1 (≈ 1.23 µM)	–	–
CCC1OC(=O)C(C)(F)C(=O)C(C)C(OC2OC(C)CC(N(C)C)C2O)C2(C)CC(C)C(=O)C(C)C(OCC(=NOCc3ccc(-c4nc(N)ns4)cc3)CO2)C1(C)O (centres unmarked) [Example 56]	2 (≈ 2.35 µM)	2 (≈ 2.35 µM)	–	–
CCC(=O)N=C1C(C)CC2(C)OCC(=NOCc3ccn(-c4cccc(N)n4)n3)COC(C1C)C(C)(O)C(CC)OC(=O)C(C)(F)C(=O)C(C)C2OC1OC(C)CC(N(C)C)C1O (centres unmarked) [Example 57]	4 (≈ 4.5 µM)	2 (≈ 2.25 µM)	–	–
CCC(=O)N=C1[C@H](C)C[C@@]2(C)OC/C(=N/OCc3ncc(-c4nc(N)cs4)cn3)CO[C@H]([C@H]1C)[C@](C)(O)[C@@H](CC)OC(=O)[C@@](C)(F)C(=O)[C@H](C)[C@H]2O[C@@H]1O[C@H](C)C[C@H](N(C)C)[C@H]1O [Example 132]	–	–	2.00 (≈ 2.21 µM)	4.00 (≈ 4.41 µM)
CCC(=O)N=C1[C@H](C)C[C@@]2(C)OC/C(=N/OCc3cnc(-c4nc(N)cs4)cn3)CO[C@H]([C@H]1C)[C@](C)(O)[C@@H](CC)OC(=O)[C@@](C)(F)C(=O)[C@H](C)[C@H]2O[C@@H]1O[C@H](C)C[C@H](N(C)C)[C@H]1O [Example 133]	–	–	2.00 (≈ 2.21 µM)	4.00 (≈ 4.41 µM)
CCC(=O)N=C1[C@H](C)C[C@@]2(C)OC/C(=N/OCc3ncc(-c4cccc(N)n4)o3)CO[C@H]([C@H]1C)[C@](C)(O)[C@@H](CC)OC(=O)[C@@](C)(F)C(=O)[C@H](C)[C@H]2O[C@@H]1O[C@H](C)C[C@H](N(C)C)[C@H]1O [Example 134]	–	–	4.00 (≈ 4.5 µM)	8.00 (≈ 9 µM)
[2H]C([2H])([2H])C([2H])([2H])C(=O)N=C1[C@H](C)C[C@@]2(C)OC/C(=N/OCc3ccc(-c4nc(N)cs4)cn3)CO[C@H]([C@H]1C)[C@](C)(O)[C@@H](CC)OC(=O)[C@@](C)(F)C(=O)[C@H](C)[C@H]2O[C@@H]1O[C@H](C)C[C@H](N(C)C)[C@H]1O [Example 135]	–	–	2.00 (≈ 2.2 µM)	2.00 (≈ 2.2 µM)
CC[C@H]1OC(=O)[C@@](C)(F)C(=O)[C@H](C)[C@@H](O[C@@H]2O[C@H](C)C[C@H](N(C)C)[C@H]2O)[C@@]2(C)C[C@@H](C)C(=NC(C)=O)[C@H](C)[C@@H](OC/C(=N\OCc3csc(-c4cccc(N)n4)n3)CO2)[C@]1(C)O [Example 136]	–	–	2.00 (≈ 2.24 µM)	2.00 (≈ 2.24 µM)
CC[C@H]1OC(=O)[C@@](C)(F)C(=O)[C@H](C)[C@@H](O[C@@H]2O[C@H](C)C[C@H](N(C)C)[C@H]2O)[C@@]2(C)C[C@@H](C)C(=NC(=O)C(C)C)[C@H](C)[C@@H](OC/C(=N\OCc3csc(-c4cccc(N)n4)n3)CO2)[C@]1(C)O [Example 137]	–	–	1.00 (≈ 1.09 µM)	2.00 (≈ 2.18 µM)
